By Emax is commonly meant the size of the effect at its maximum, as opposed to the concentration needed. Usually share remaining stands for the share of the starting amount still present when the sample was taken.

For data set [1], the target named is T1, human GLP1 receptor (Homo sapiens, UniProt P43220).
T1 construct: expressed in transfected cells; host or cells: HEK cells, BacMam virus transduction
The data set is described as follows: cAMP accumulation assay, functional agonism of human GLP1 receptor. In kind it is cell-based. The following applies: HEK cells infected with human GLP1 receptor BacMam virus, HTRF cAMP; for Emax: HEK293, read-out: Human GLP-1R agonist cAMP Emax; for EC50: read-out: Human GLP-1R agonist cAMP pEC50 (converted). The procedure, abridged:
(§1)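 Frozen HEK cells, previously BacMam-infected 24 h to express either receptor, are stimulated for 45 min at 37° C in IBMX-containing (0.5 mM) HBSS. The reaction is then terminated with HTRF reagents in lysis buffer.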
(In general: Cyclic AMP is a second messenger, typically raised through Gs and lowered through Gi signalling.)

Data set [2] in a line: Stability of peptides in Fasted-State Simulated Intestinal Fluid (FaSSIF). In kind it is in vitro ADME. The following applies: FaSSIF with 10 mg/ml pancreatin, 37° C.; for remaining at 0.5 h: t=30 mins, pH 6.5, 10 mg/ml pancreatin; for remaining at 0.25 h: FaSSIF pH 6.5 with 10 mg/ml pancreatin, t = 15 mins.
Data set [3] addresses T2, human GLP2 receptor (Homo sapiens, UniProt O95838).
T2 construct: expressed in transfected cells; host or cells: HEK cells, BacMam virus transduction
T2 sequence (O95838 1-553): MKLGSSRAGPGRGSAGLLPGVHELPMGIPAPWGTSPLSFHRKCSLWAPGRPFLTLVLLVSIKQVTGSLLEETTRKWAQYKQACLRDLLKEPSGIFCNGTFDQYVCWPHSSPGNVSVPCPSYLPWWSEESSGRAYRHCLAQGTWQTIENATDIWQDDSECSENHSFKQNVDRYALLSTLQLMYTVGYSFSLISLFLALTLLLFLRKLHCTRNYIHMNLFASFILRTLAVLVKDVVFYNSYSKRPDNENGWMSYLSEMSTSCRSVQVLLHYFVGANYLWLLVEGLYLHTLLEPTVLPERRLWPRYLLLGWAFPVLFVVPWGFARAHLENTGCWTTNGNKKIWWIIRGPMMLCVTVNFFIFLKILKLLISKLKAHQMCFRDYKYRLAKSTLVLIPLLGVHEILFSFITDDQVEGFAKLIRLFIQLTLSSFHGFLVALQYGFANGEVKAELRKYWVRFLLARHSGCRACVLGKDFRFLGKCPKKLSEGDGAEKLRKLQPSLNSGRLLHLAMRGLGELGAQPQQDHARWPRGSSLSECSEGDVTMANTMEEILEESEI
The data set is described as follows: cAMP accumulation assay, functional agonism of human GLP2 receptor. The class given is cell-based. The following applies: HEK cells infected with human GLP2 receptor BacMam virus, HTRF cAMP; for Emax: HEK293, read-out: Human GLP-2R agonist cAMP Emax; for EC50: read-out: Human GLP-2R agonist cAMP pEC50 (converted). In a few lines:
as §1

Positions of bridges follow the written chain, without caps; N, C: chain ends. Non-standard residues stand in square brackets, D forms with d. Residues, ends and D or L forms follow the SMILES beside them. *: point of attachment. Malonyl(2,2-Me2,histaminyl) = CC(C)(C(=O)NCCc1cnc[nH]1)C(=O)*; Ala(1H-tetrazol-5-yl) = N[C@@H](Cc1nnn[nH]1)C(=O)O; αMeL = CC(C)C[C@](C)(N)C(=O)O; Nle = CCCC[C@H](N)C(=O)O; Aib = CC(C)(N)C(=O)O

T1 sequence (P43220 24-463): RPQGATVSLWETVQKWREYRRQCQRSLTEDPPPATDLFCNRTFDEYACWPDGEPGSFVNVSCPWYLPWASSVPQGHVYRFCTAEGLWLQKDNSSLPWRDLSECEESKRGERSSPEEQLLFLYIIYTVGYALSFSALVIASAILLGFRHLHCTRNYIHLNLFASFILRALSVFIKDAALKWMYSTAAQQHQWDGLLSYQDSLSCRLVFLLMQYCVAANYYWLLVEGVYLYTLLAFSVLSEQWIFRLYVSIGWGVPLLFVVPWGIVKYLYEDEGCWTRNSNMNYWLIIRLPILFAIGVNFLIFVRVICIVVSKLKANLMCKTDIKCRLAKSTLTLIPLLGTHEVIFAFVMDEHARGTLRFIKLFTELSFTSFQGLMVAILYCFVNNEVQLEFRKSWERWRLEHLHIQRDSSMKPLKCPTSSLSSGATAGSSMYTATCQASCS

For `CCCC[C@@H]1NC(=O)[C@H](CCC(=O)O)NC(=O)[C@@H](NC(=O)[C@H](CO)NC(=O)[C@H](Cc2ccccc2)NC(=O)[C@H](CO)NC(=O)CNC(=O)[C@H](Cc2nn[nH]n2)NC(=O)C(C)(C)C(=O)NCCc2c[nH]cn2)CCCCNC(=O)C[C@@H](C(=O)N[C@H](C(=O)N[C@@H](CC(C)C)C(=O)N[C@@H](CC(=O)O)C(=O)N[C@H]2CCC(=O)NCCCC[C@@H](C(=O)N[C@@H](CC(=O)O)C(=O)N[C@@H](Cc3ccccc3)C(=O)N[C@H](C(=O)N[C@@H](CC(N)=O)C(=O)N[C@@H](Cc3c[nH]c4ccccc34)C(=O)N[C@@H](CC(C)C)C(=O)N[C@H](C(=O)N[C@@H](CCC(N)=O)C(=O)N[C@H](C(=O)N[C@H]3CCC(=O)NCCCC[C@@H](C(=O)N4CCC[C@H]4C(N)=O)NC(=O)[C@H]([C@@H](C)O)NC(=O)[C@H]([C@@H](C)CC)NC3=O)[C@@H](C)O)[C@@H](C)CC)[C@@H](C)CC)NC(=O)[C@H](C)NC(=O)[C@H](C)NC(=O)[C@H](CCCCN)NC2=O)[C@@H](C)CC)NC(=O)[C@@H](Cc2ccccc2)NC1=O` [Example 13] ({Malonyl(2,2-Me2,histaminyl)}-[Ala(1H-tetrazol-5-yl)]GSFSKE[Nle][dF]DILDEKAAKDFINWLIQTEITKP-NH2; lactam 6-10, 14-18, 28-31 (inferred); C-terminus assumed), in data set [1], the Emax was 92.5% and the EC50 is 251 pM. Besides, the share remaining at 0.5 h in data set [2] was 3.8%. In data set [3], the Emax was 104% and the EC50 was 31.6 pM.

With `CCCC[C@@H]1NC(=O)[C@H](CCC(=O)O)NC(=O)[C@@H](NC(=O)[C@H](CO)NC(=O)[C@H](Cc2ccccc2)NC(=O)[C@H](CO)NC(=O)CNC(=O)[C@H](CC(=O)O)NC(=O)C(C)(C)NC(=O)[C@@H](N)Cc2c[nH]cn2)CCCCNC(=O)C[C@@H](C(=O)N[C@H](C(=O)N[C@@H](CC(C)C)C(=O)N[C@@H](CC(=O)O)C(=O)N[C@H]2CCC(=O)NCCCC[C@@H](C(=O)N[C@@H](CC(=O)O)C(=O)N[C@@H](Cc3ccccc3)C(=O)N[C@H](C(=O)N[C@@H](CC(N)=O)C(=O)N[C@@H](Cc3c[nH]c4ccccc34)C(=O)N[C@@H](CC(C)C)C(=O)N[C@H](C(=O)N[C@@H](CCC(N)=O)C(=O)N[C@H]3CCC(=O)NCCCC[C@@H](C(N)=O)NC(=O)[C@H]([C@@H](C)O)NC(=O)[C@H]([C@@H](C)CC)NC(=O)[C@H](CCCCN)NC3=O)[C@@H](C)CC)[C@@H](C)CC)NC(=O)[C@H](C)NC(=O)[C@H](C)NC(=O)[C@H](CCCCN)NC2=O)[C@@H](C)CC)NC(=O)[C@@H](Cc2ccccc2)NC1=O` [Example 4] (H-H[Aib]DGSFSKE[Nle][dF]DILDEKAAKDFINWLIQEKITK-NH2; lactam 8-12, 16-20, 29-33 (inferred); C-terminus assumed), in data set [1], the Emax came out at 94.7% and the EC50 was 501 pM. The amount remaining at 0.5 h in data set [2] was 4.3%. For the same molecule, in data set [3], the Emax turned out to be 103% and the EC50 is 10 pM.

In the case of `CCCC[C@H](NC(=O)[C@H](CCC(=O)O)NC(=O)[C@@H]1CC(=O)NCCCC[C@H](NC(=O)[C@H](CC(=O)O)NC(=O)C(C)(C)NC(=O)[C@@H](N)Cc2c[nH]cn2)C(=O)N[C@@H](CO)C(=O)N[C@@H](Cc2ccccc2)C(=O)N[C@@H](CO)C(=O)N1)C(=O)N[C@H](Cc1ccccc1)C(=O)N[C@H](C(=O)N[C@@](C)(CC(C)C)C(=O)N[C@@H](CC(C)C)C(=O)N[C@@H](CC(=O)O)C(=O)N[C@H]1CCC(=O)NCCCC[C@@H](C(=O)N[C@@H](CC(=O)O)C(=O)N[C@@H](Cc2ccccc2)C(=O)N[C@H](C(=O)N[C@H]2CCC(=O)NCCCC[C@@H](C(=O)N[C@H](C(=O)N[C@@H](CCCCN)C(N)=O)[C@@H](C)O)NC(=O)[C@H]([C@@H](C)CC)NC(=O)[C@H](CC(C)C)NC(=O)[C@H](Cc3c[nH]c4ccccc34)NC2=O)[C@@H](C)CC)NC(=O)[C@H](C)NC(=O)[C@H](C)NC(=O)[C@H](CCCCN)NC1=O)[C@@H](C)O` [Example 21] (H-H[Aib]DKSFSDE[Nle][dF]T[αMeL]LDEKAAKDFIEWLIKTK-NH2; lactam 4-8, 16-20, 24-28; N-terminus and C-terminus assumed), the figures for the Emax in data set [1] and in data set [3] were 96.6% and 104%, respectively. Further, the share remaining at 0.5 h in data set [2] is 51.7%.

Consider `CCCC[C@H](NC(=O)[C@H](CCC(=O)O)NC(=O)[C@@H]1CCCCNC(=O)CC[C@H](NC(=O)[C@H](CC(=O)O)NC(=O)C(C)(C)NC(=O)[C@@H](N)Cc2c[nH]cn2)C(=O)N[C@@H](CO)C(=O)N[C@@H](Cc2ccccc2)C(=O)N[C@@H](CO)C(=O)N1)C(=O)N[C@H](Cc1ccccc1)C(=O)N[C@H](C(=O)N[C@H](C(=O)N[C@@H](CC(C)C)C(=O)N[C@@H](CC(=O)O)C(=O)N[C@H]1CCCCNC(=O)C[C@@H](C(=O)N[C@@H](CC(=O)O)C(=O)N[C@@H](Cc2ccccc2)C(=O)N[C@H](C(=O)N[C@@H](CC(N)=O)C(=O)N[C@@H](Cc2c[nH]c3ccccc23)C(=O)N[C@@H](CC(C)C)C(=O)N[C@H](C(=O)N[C@@H](CCC(N)=O)C(=O)N[C@H](C(=O)N[C@@H](CCCCN)C(=O)N[C@H](C(=O)N[C@H](C(=O)N[C@@H](CC(=O)O)C(N)=O)[C@@H](C)O)[C@@H](C)CC)[C@@H](C)O)[C@@H](C)CC)[C@@H](C)CC)NC(=O)[C@H](C)NC(=O)[C@H](C)NC(=O)[C@H](CCCCN)NC1=O)[C@@H](C)CC)[C@@H](C)O` [Example 110] (H-H[Aib]DESFSKE[Nle][dF]TILDKKAADDFINWLIQTKITD-NH2; lactam 4-8, 16-20; N-terminus and C-terminus assumed), for which, in data set [1], the Emax is 88.1% and the EC50 is 3980 pM. Also, the fraction remaining at 0.25 h in data set [2] was 5%. Also, in data set [3], the Emax came out at 103% and the EC50 was 15.8 pM.

On to `CCCC[C@H](NC(=O)[C@H](CCC(=O)O)NC(=O)[C@H](CC(=O)O)NC(=O)[C@H](CO)NC(=O)[C@H](Cc1ccccc1)NC(=O)[C@H](CO)NC(=O)CNC(=O)[C@H](Cc1nn[nH]n1)NC(=O)C(C)(C)C(=O)NCCc1c[nH]cn1)C(=O)N[C@H](Cc1ccccc1)C(=O)N[C@H]1CCCCNC(=O)C[C@@H](C(=O)N[C@@H](CCCCN)C(=O)N[C@@H](C)C(=O)N[C@@H](C)C(=O)N[C@@H](CCCCN)C(=O)N[C@@H](CC(=O)O)C(=O)N[C@@H](Cc2ccccc2)C(=O)N[C@H](C(=O)N[C@@H](CC(N)=O)C(=O)N[C@@H](Cc2c[nH]c3ccccc23)C(=O)N[C@@H](CC(C)C)C(=O)N[C@H](C(=O)N[C@@H](CCC(N)=O)C(=O)N[C@H](C(=O)N[C@@H](CCCCN)C(=O)N[C@H](C(=O)N[C@H](C(=O)N[C@@H](Cc2ccccc2)C(N)=O)[C@@H](C)O)[C@@H](C)CC)[C@@H](C)O)[C@@H](C)CC)[C@@H](C)CC)NC(=O)[C@H](CC(=O)O)NC(=O)[C@H](CC(C)C)NC(=O)[C@H]([C@@H](C)CC)NC1=O` [Example 91] ({Malonyl(2,2-Me2,histaminyl)}-[Ala(1H-tetrazol-5-yl)]GSFSDE[Nle][dF]KILDDKAAKDFINWLIQTKITF-NH2; lactam 10-14), for which, in data set [1], the Emax amounted to 98.8% and the EC50 was 251 pM. Further, in data set [2], the fraction remaining at 0.25 h is 8.8%. For the same molecule, in data set [3], the Emax was determined as 104% and the EC50 is 10 pM.

Source of the values: patent US20240270809A1, “ORAL GLP RECEPTOR AGONISTS” (priority 2020, published 2024).
